Assay results from patent US11718622B2, “Heterocyclic adenosine receptor antagonists” (Exelixis, Inc., priority 2020, dated 2023).

Key:
[1] = target: Adenosine A2a (ADORA2A) receptor (Homo sapiens (Human), UniProt P29274); assay: ADORA2A Receptor Binding Assay; details: radioligand binding, membrane stock
Description: ADORA1A and ADORA2A Receptor Binding Assay
2 μL of each compound (test compounds, high control compound, low control compound) was transferred into individual wells of an assay plate. Also to each individual well, 98 μL of Adenosine A1a membrane stock (for ADORA1A Receptor Binding Assay) or Adenosine A2a membrane stock (for ADORA2A Receptor Binding Assay) was dispensed, followed by 100 μL of radio-labeled ligand. Plates were then sealed, and incubated at room temperature for 1 hour (for ADORA1A Receptor Binding Assay) or 2 hours (for ADORA2A Receptor Binding Assay). Unifilter-96 GF/C filter plates were pre-soaked with 50 μL of 0.3% PEI per well for at least 30 min at room temperature. When binding assays were completed, reaction mixtures were filtered through GF/C plates using a Perkin Elmer Filtermate Harvester, and then each plate was washed 4× with cold wash buffer. Filter plates were then dried for 1 hour at 50° C. After drying, the bottom of the filter plate wells was sealed using Perkin Elmer Unifilter-96 backing seal tape. 50 μL of Perkin Elmer Microscint 20 cocktail was then added, and the top of the filter plate was then sealed using Perkin Elmer TopSeal-A sealing film. ^3H trapped on the filter was counted using a Perkin Elmer MicroBeta2 Reader. Data analysis was performed using GraphPad Prism 5 software, and the “Inhibition [% Control]” was calculated using the following equation: % Inh=(1−Background subtracted Assay value/Background subtracted HC value)*100.

[2] = target: Adenosine A2B (ADORA2B) receptor (Homo sapiens (Human), UniProt P29275); assay: ADORA2B Receptor Binding Assay; details: radioligand binding, membrane stock
Description: ADORA2B Receptor Binding Assay
100 μL of Adenosine A2B membrane stock was dispensed into individual wells of an assay plate. 1 μL of each compound (test compounds, high control compound, low control compound) was then transferred into individual wells, followed by 100 μL of radio-labeled ligand. Plates were then sealed, and incubated at room temperature for 1 hour. Unifilter-96 GF/C filter plates were pre-soaked with 50 μL of 0.5% BSA per well for at least 30 min at room temperature. When binding assays were completed, reaction mixtures were filtered through GF/C plates using a Perkin Elmer Filtermate Harvester, and then each plate was washed 4× with cold wash buffer. Filter plates were then dried for 1 hour at 50° C. After drying, the bottom of the filter plate wells was sealed using Perkin Elmer Unifilter-96 backing seal tape. 50 μL of Perkin Elmer Microscint 20 cocktail was then added, and the top of the filter plate was then sealed using Perkin Elmer TopSeal-A sealing film. ^3H trapped on the filter was counted using a Perkin Elmer MicroBeta2 Reader. Data analysis was performed using GraphPad Prism 5 software, and the “Inhibition[% Control]” was calculated using the following equation: % Inh=(1−Background subtracted Assay value/Background subtracted HC value)*100.

Chain of Adenosine A2B (ADORA2B) receptor (P29275 whole entry): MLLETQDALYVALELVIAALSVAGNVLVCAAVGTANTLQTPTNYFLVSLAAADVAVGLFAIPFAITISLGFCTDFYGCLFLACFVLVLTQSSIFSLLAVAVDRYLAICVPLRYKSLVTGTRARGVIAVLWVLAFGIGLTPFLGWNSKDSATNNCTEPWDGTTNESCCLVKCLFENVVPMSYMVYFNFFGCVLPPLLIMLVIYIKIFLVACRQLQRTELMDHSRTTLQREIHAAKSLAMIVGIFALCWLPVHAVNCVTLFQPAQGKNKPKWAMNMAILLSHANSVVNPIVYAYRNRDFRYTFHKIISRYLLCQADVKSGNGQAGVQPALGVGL
Chain of Adenosine A2a (ADORA2A) receptor (P29274 whole entry): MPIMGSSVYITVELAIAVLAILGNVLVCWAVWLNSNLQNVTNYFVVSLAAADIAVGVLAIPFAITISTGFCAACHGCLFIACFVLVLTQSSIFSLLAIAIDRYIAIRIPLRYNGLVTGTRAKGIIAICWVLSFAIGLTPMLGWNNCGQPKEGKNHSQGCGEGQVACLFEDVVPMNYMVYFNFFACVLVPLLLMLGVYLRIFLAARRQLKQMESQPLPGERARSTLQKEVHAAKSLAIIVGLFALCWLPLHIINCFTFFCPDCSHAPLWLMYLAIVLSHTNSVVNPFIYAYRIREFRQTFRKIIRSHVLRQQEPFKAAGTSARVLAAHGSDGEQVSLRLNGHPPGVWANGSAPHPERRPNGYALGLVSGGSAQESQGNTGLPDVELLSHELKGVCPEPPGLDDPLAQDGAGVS

IC50 [1] [nM] | IC50 [2] [nM] | Compound
< 10 | < 10 | Cc1cc2c(nc(-c3ccc(C)o3)n3nc(C(F)(F)F)nc23)[nH]1 [Compound 88, 11-methyl-7-(5-methylfuran-2-yl)-4-(trifluoromethyl)-3,5,6,8,10-pentazatricyclo[7.3.0.0^2,6]dodeca-1(9),2,4,7,11-pentaene]
10 to 100 | 100 to 1000 | Cc1nc2c(C)c(NC(=O)C3CC3)nc(-c3ccc(C)o3)n2n1 [Compound 19, N-[2,8-dimethyl-5-(5-methylfuran-2-yl)-[1,2,4]triazolo[1,5-c]pyrimidin-7-yl]cyclopropanecarboxamide]
10 to 100 | 10 to 100 | Cc1nc2c3cn[nH]c3nc(-c3ccc(C)o3)n2n1 [Compound 102, 4-methyl-7-(5-methylfuran-2-yl)-3,5,6,8,10,11-hexazatricyclo[7.3.0.0^2,6]dodeca-1(9),2,4,7,11-pentaene]
< 10 | 10 to 100 | CC(=O)Nc1cc2nc(C3COC3)nn2c(-c2ccco2)n1 [Compound 91, N-[5-(furan-2-yl)-2-(oxetan-3-yl)-[1,2,4]triazolo[1,5-c]pyrimidin-7-yl]acetamide]
< 10 | < 10 | Cc1nc2cc(NC(=O)C3CC3)nc(-c3ccco3)n2n1 [Compound 29, N-[5-(furan-2-yl)-2-methyl-[1,2,4]triazolo[1,5-c]pyrimidin-7-yl]cyclopropanecarboxamide]
< 10 | 100 to 1000 | Cc1ccc(-c2nc(NC(=O)C3CC3)cc3nc(C4CCOCC4)nn23)o1 [Compound 54, N-[5-(5-methylfuran-2-yl)-2-(oxan-4-yl)-[1,2,4]triazolo[1,5-c]pyrimidin-7-yl]cyclopropanecarboxamide]
< 10 | < 10 | O=C(Nc1cc2nc(C(F)F)nn2c(-c2ccco2)n1)C1CC1 [Compound 148, N-[2-(difluoromethyl)-5-(furan-2-yl)-[1,2,4]triazolo[1,5-c]pyrimidin-7-yl]cyclopropanecarboxamide]
< 10 | 10 to 100 | Cc1nc2c(nc(-c3ccc(C)o3)n3nc(C(C)C)nc23)[nH]1 [Compound 120, 2-methyl-5-(5-methylfuran-2-yl)-8-propan-2-yl-3H-[1,2,4]triazolo[5,1-f]purine]
< 10 | < 10 | Cc1ccc(-c2nc(NC(=O)C3CC3)cn3nc(N)nc23)o1 [Compound 187, N-[2-amino-8-(5-methylfuran-2-yl)-[1,2,4]triazolo[1,5-a]pyrazin-6-yl]cyclopropanecarboxamide]
< 10 | 10 to 100 | CC(=O)Nc1cc2nc(C(C)C)nn2c(-c2cnc(C)o2)n1 [Compound 47, N-[5-(2-methyl-1,3-oxazol-5-yl)-2-propan-2-yl-[1,2,4]triazolo[1,5-c]pyrimidin-7-yl]acetamide]
100 to 1000 | 100 to 1000 | Cc1ccc(-c2nc(N)cn3ncnc23)o1 [Compound 166, 8-(5-methylfuran-2-yl)-[1,2,4]triazolo[1,5-a]pyrazin-6-amine]
< 10 | < 10 | Cc1ccc(-c2nc3[nH]c(C(C)(C)O)cc3c3nc(C(F)(F)F)nn23)o1 [Compound 147, 2-[7-(5-methylfuran-2-yl)-4-(trifluoromethyl)-3,5,6,8,10-pentazatricyclo[7.3.0.0^2,6]dodeca-1(9),2,4,7,11-pentaen-11-yl]propan-2-ol]
< 10 | 100 to 1000 | Cc1nc2c(Cl)c(NC(=O)C3CC3)nc(-c3ccc(C)o3)n2n1 [Compound 15, N-[8-chloro-2-methyl-5-(5-methylfuran-2-yl)-[1,2,4]triazolo[1,5-c]pyrimidin-7-yl]cyclopropanecarboxamide]
< 10 | 10 to 100 | Cc1nc2cc(NC(=O)NCC(C)C)nc(-c3ccco3)n2n1 [Compound 156, 1-[5-(furan-2-yl)-2-methyl-[1,2,4]triazolo[1,5-c]pyrimidin-7-yl]-3-(2-methylpropyl)urea]
< 10 | < 10 | Cc1nc2cc(NC(=O)C3CC3)nc(-c3ccc(Br)o3)n2n1 [Compound 52, N-[5-(5-bromofuran-2-yl)-2-methyl-[1,2,4]triazolo[1,5-c]pyrimidin-7-yl]cyclopropanecarboxamide]
< 10 | < 10 | CNC(=O)Nc1cc2nc(C)nn2c(-c2ccco2)n1 [Compound 108, 1-[5-(furan-2-yl)-2-methyl-[1,2,4]triazolo[1,5-c]pyrimidin-7-yl]-3-methylurea]

IC50 [1] [nM] | IC50 [2] [nM] | Compound
< 10 | 10 to 100 | Cc1nc2cc(N)nc(-c3ccc(C)o3)n2n1 [Compound 1, 2-Methyl-5-(5-methylfuran-2-yl)-[1,2,4]triazolo[1,5-c]pyrimidin-7-amine]
< 10 | 10 to 100 | Cc1cccc(-c2nc(N)c(Cl)n3nc(C)nc23)c1 [Compound 183, 5-chloro-2-methyl-8-(3-methylphenyl)-[1,2,4]triazolo[1,5-a]pyrazin-6-amine]
10 to 100 | 10 to 100 | CC(=O)Nc1cc2nc(C)nn2c(-c2cnc(C)o2)n1 [Compound 44, N-[2-methyl-5-(2-methyl-1,3-oxazol-5-yl)-[1,2,4]triazolo[1,5-c]pyrimidin-7-yl]acetamide]
< 10 | 10 to 100 | Cc1ccc(-c2nc(NC(=O)C3CC3)cc3nc(C4CCOC4)nn23)o1 (centres unmarked) [Compound 50, N-[5-(5-methylfuran-2-yl)-2-(oxolan-3-yl)-[1,2,4]triazolo[1,5-c]pyrimidin-7-yl]cyclopropanecarboxamide]
10 to 100 | 100 to 1000 | CC(=O)Nc1cc2nc(C)nn2c(-c2cccc(F)c2)n1 [Compound 132, N-[5-(3-fluorophenyl)-2-methyl-[1,2,4]triazolo[1,5-c]pyrimidin-7-yl]acetamide]
< 10 | < 10 | CC(=O)Nc1cc2nc(C)nn2c(-c2ccc(C)o2)n1 [Compound 25, N-[2-methyl-5-(5-methylfuran-2-yl)-[1,2,4]triazolo[1,5-c]pyrimidin-7-yl]acetamide]
< 10 | < 10 | Cc1ccc(-c2nc(NC(=O)C3CC3)cc3nc(C(C)C)nn23)o1 [Compound 12, N-[5-(5-methylfuran-2-yl)-2-propan-2-yl-[1,2,4]triazolo[1,5-c]pyrimidin-7-yl]cyclopropanecarboxamide]
10 to 100 | 10 to 100 | Nc1nc(-c2ccccc2)c2nc(C(F)(F)F)cn2c1Cl [Compound 204, 5-chloro-8-phenyl-2-(trifluoromethyl)imidazo[1,2-a]pyrazin-6-amine]
100 to 1000 | > 1000 | Cc1nc2cc(NC(=O)OC(C)(C)C)nc(-c3ccc(S(=O)(=O)O)cc3)n2n1 [Compound 124, 4-[2-methyl-7-[(2-methylpropan-2-yl)oxycarbonylamino]-[1,2,4]triazolo[1,5-c]pyrimidin-5-yl]benzenesulfonic acid]
10 to 100 | 100 to 1000 | Cc1nc2cc(N)nc(-c3ccc(F)c(F)c3)n2n1 [Compound 130, 5-(3,4-difluorophenyl)-2-methyl-[1,2,4]triazolo[1,5-c]pyrimidin-7-amine]
< 10 | 10 to 100 | Cc1nc2cc(NC(=O)C3CC3)nc(-c3ccc(C4CC4)o3)n2n1 [Compound 38, N-[5-(5-cyclopropylfuran-2-yl)-2-methyl-[1,2,4]triazolo[1,5-c]pyrimidin-7-yl]cyclopropanecarboxamide]
100 to 1000 | > 1000 | Cc1nc2cc(NC(=O)C3CC3)nc(-c3ccc(C#N)cc3)n2n1 [Compound 56, N-[5-(4-cyanophenyl)-2-methyl-[1,2,4]triazolo[1,5-c]pyrimidin-7-yl]cyclopropanecarboxamide]
100 to 1000 | > 1000 | CNc1nc(-c2ccc(C)o2)n2nc(C)nc2c1Cl [Compound 23, 8-chloro-N,2-dimethyl-5-(5-methylfuran-2-yl)-[1,2,4]triazolo[1,5-c]pyrimidin-7-amine]
< 10 | < 10 | CC(C)c1nc2c(-c3ccco3)nc(NC(=O)C3CC3)cn2n1 [Compound 181, N-[8-(furan-2-yl)-2-propan-2-yl-[1,2,4]triazolo[1,5-a]pyrazin-6-yl]cyclopropanecarboxamide]
< 10 | 10 to 100 | Cc1ccc(-c2nc(NC(=O)C3CC3)cc3nc(C4CCCC4)nn23)o1 [Compound 66, N-[2-cyclopentyl-5-(5-methylfuran-2-yl)-[1,2,4]triazolo[1,5-c]pyrimidin-7-yl]cyclopropanecarboxamide]
